{"source": "patent US10239871B2", "about": "“Compounds and methods for regulating integrins” (ADHAERE PHARMACEUTICALS, INC., priority 2012, dated 2019)", "key": {"[1]": {"test_system": "balloon-induced arterial injury", "experiment": "Balloon-induced arterial injury in rats (neointima)", "type": "in vivo, rat", "experimental": "All surgeries were performed under anesthesia by isoflurane (Baxter). Activating mAb ED7 (4 mg/kg/d), the isotype control mIgG1 (4 mg/kg/d, Rockland) and the leukadherin LA1 (1 mg/kg/d) were each administered intra peritoneally (i.p.) in saline daily until the end of the experiment. Balloon injury in the right iliac artery was inflicted with a 2F Fogarty catheter (Baxter) adapted to a custom angiographic kit (Boston Scientific, Scimed). An aortotomy in the abdominal aorta was made to insert a catheter to the level of the right iliac artery. The balloon was inflated to 1.5 to 1.6 atmospheres and retracted to the arteriotomy site three times. The aortic excision was repaired with eight sutures. The abdominal cavity was closed by planes with an interrupted suture pattern. Arterial specimens were collected 21 days after injury and fixed in 4% formalin-PBS (Sigma-Aldrich) for 5 minutes and analyzed by histology and immunostaining. Neointima were measured in H&E stained slides using ImagePro.\nDespite significant technological advances in PCI, restenosis (re-narrowing) secondary to neointimal hyperplasia remains a major complication limiting the success of coronary interventions in 5-25% of patients. The recruitment of inflammatory macrophages and other leukocytes precedes neointimal hyperplasia. The denudation of endothelial cell lining at the site of mechanical vascular injury during a PCI procedure leads to the deposition of fibrin and platelets, where selective binding between the platelet cell surface receptor GP lb[…] and leukocytic CD11b/CD18 leads to the migration and recruitment of these inflammatory cells. Indeed, in experimental models, it has been shown that the genetic ablation of CD11b (CD11b−/− animals) or its blockade (using biological antagonists) can reduce neointima formation after angioplasty or stent implantation. […] Here, this experimental arterial balloon injury model was used to examine the relative efficacy of the two types of agonists, in a head-to-head comparison, on inflammatory responses in vivo. First, the dose-dependence of LA1 in this model system was determined. LA1 was administered at two different doses (0.05 or 1 mg/kg/d, intraperitoneal (i.p.)), or the vehicle (DMSO), in a saline solution to SD male rats 30 minutes prior to injury and continued daily injections for the next three weeks and subsequently measured the extent of vascular injury via tissue histology (FIGS. 14A-14D). Data shown are mean±SEM. *p<0.05, **p<0.001.\nNext, in order to examine the relative efficacy of LA1 and ED7, LA1 (1 mg/kg/d) or ED7 (4 mg/kg/d) were administered to SD male rats 30 minutes prior to balloon injury and continued daily for the next 21 days. An isotype control antibody (mIgG1, 4 mg/kg/d) was administered to the control group of animals. […] Data shown are mean±SEM. *p<0.05, ***p<0.0001, ns=not significant."}, "Syk": {"test_system": "Syk", "experiment": "Western blot analysis of Syk phosphorylation in leukocytes", "type": "cell-based", "conditions": "leukocytes incubated 0-60 minutes", "from_the_text": "TLR4-mediated signaling requires participation of the adaptor protein MyD88 (43) and MyD88−/− mice are protected from kidney damage following IRI. TLR4 activation leads to the binding and stabilization of adaptor protein MyD88, which recruits downstream kinases to initiate Nf-kB-mediated pro-inflammatory signaling. Subsequently, TLR4 signaling induces a negative feedback loop by endogenous activation of CD11b/CD18, which activates Syk to phosphorylate MyD88, tagging it for ubiquitin-mediated destruction. […] A pilot experiment was carried out to validate this hypothesis by determining the levels of MyD88 in human monocytic THP-1 cells. […] This supports the statements that leukadherins mediated priming of integrins for activation negatively regulates intracellular signaling, including the inflammatory NF-kB signaling."}, "Cl66 cells": {"test_system": "Cl66 cells", "experiment": "Orthotopic Cl66 mammary adenocarcinoma tumor growth, with or without Taxol", "type": "in vivo", "conditions": "BALB/c mice", "experimental": "The syngeneic murine mammary adenocarcinoma cell line Cl66 (moderately metastatic and is related to the highly metastatic 4T1 cell line) was orthotopically introduced in Balb/c animals, by injecting ˜5×10^5 Cl66 cells under the left mammary fat pad of WT BALB/c mice (approx. 8-10 weeks old). The tumor size was measured using calipers every other day until the end of the experiment (approx. 5 weeks). 7-days post implantation, the tumors in all animals became palpable, with an average size of ˜100 mm3. At that time, animals in each group were treated as described. LA1 was administered daily for the first two weeks and then every other day until the end of the experiment. Animals in Group 1 received Saline injections, as control. […] It can also enhance the efficacy of traditional chemotherapy in various cancers, including breast cancer, to produce a synergistic response to the treatment. It can also reduce the incidence and the size of metastases."}, "[2]": {"test_system": "Human Umbilical Vein Endothelial Cells", "experiment": "TUNEL assay, HUVEC co-cultured with LA1-activated neutrophils", "type": "cell-based", "conditions": "LA1-mediated adhesion of neutrophils", "from_the_text": "In support of this argument, neither we nor others studying knock-in animals that express constitutively active mutants of integrins LFA-1 [54, 55] and […]4[…]7 [56] have observed any signs of vascular injury in any experimental model. FIGS. 22A-22E show an absence of apoptosis in co-cultures of LA-1 activated leukocytes and HUVEC cells."}, "Human macrophages": {"test_system": "Human macrophages", "experiment": "TNF-α release from human macrophages", "type": "cell-based"}, "[3]": {"conditions": "LA1 1 mg/kg/d, ED7 4 mg/kg/d, 21 days"}}, "note": "Entries after “also recorded” stand apart in the source; their conditions may differ.", "data": [{"smiles": "O=C(O)c1ccc(-c2ccc(/C=C3\\SC(=S)N(Cc4ccccc4)C3=O)o2)cc1", "note": "[LA1]", "values": [{"measurement": "neointimal hyperplasia vs vehicle", "setting": "[1]; 0.05 or 1 mg/kg/d i.p., three weeks, SD male rats", "value": "significantly less neointimal hyperplasia"}, {"measurement": "dose dependence of reduction in mechanical vascular injury", "setting": "[1]; 0.05 vs 1 mg/kg/d i.p.", "value": "dose-dependent reduction"}, {"measurement": "neointima formation compared to the ED7 group", "setting": "[1]; LA1 1 mg/kg/d vs ED7 4 mg/kg/d, 21 days", "value": "significantly less neointima formation"}, {"measurement": "neointimal hyperplasia (NIH) / mechanical vascular injury, significance vs control group", "setting": "[1]; [3]", "value": "significant reduction in neointimal hyperplasia"}, {"measurement": "neointimal thickening vs control mAb IgG1-treated group", "setting": "[1]; [3]", "value": "reduced neointimal thickening"}, {"measurement": "Syk phosphorylation (pSyk)", "setting": "Syk", "value": "induction of Syk phosphorylation; also recorded: induces Syk phosphorylation"}, {"measurement": "rate of tumor growth, co-treatment with Taxol", "setting": "Cl66 cells", "value": "highest reduction in the rate of tumor growth"}, {"measurement": "rate of tumor growth, single agent", "setting": "Cl66 cells; vs vehicle", "value": "significant reduction in the rate of tumor growth"}, {"measurement": "HUVEC apoptosis (TUNEL)", "setting": "[2]", "value": "does not increase HUVEC apoptosis"}, {"measurement": "cellular morphology", "setting": "Human macrophages; LA1 alone", "value": "no effect on cellular morphology"}, {"measurement": "TNF-α release from stimulated macrophages", "setting": "Human macrophages; dsRNA antigen (R848) plus LA1, lupus patients and healthy volunteers", "value": "significantly reduced the TNF-α release; also recorded: significantly impaired"}, {"measurement": "TNF-α induction by LA1 alone", "setting": "Human macrophages; over 24 hrs", "value": "did not induce TNF-α"}]}]}
